Data reported in PubChem BioAssay AID248 (DTP/NCI, 2004).
Where “and” joins values, the source holds several entries; their conditions need not be identical. Equal entries are not always repeated. Inconclusive results and toxic doses are left out. Cut-off read from the data, not from the text of the source: active = T/C of 150% or more; inactive = T/C below 125%.

Tested on: L1210 leukemia ip in BDF1 mice, survival T/C
Test: NCI In Vivo Anticancer Drug Screen. Data for tumor model L1210 Leukemia (intraperitoneal) in B6D2F1 (BDF1) mice
Settings: endpoint: mean survival time, higher = longer survival
Procedure, shortened: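 Tumor was transplanted into mice, which were then dosed with test compound or vehicle alone. Survival was recorded for each group, and the treated figure was expressed relative to the control figure.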

[1] = dose: 100.0 mg/kg/injection, schedule: Q04DX002 (ip), vehicle: saline with Tween-80
[2] = dose: 200.0 mg/kg/injection, schedule: Q04DX002 (ip), vehicle: saline with Tween-80
[3] = dose: 400.0 mg/kg/injection, schedule: Q04DX002 (ip), vehicle: saline with Tween-80
[4] = dose: 100.0 mg/kg/injection, schedule: Q04DX003 (ip), vehicle: saline
[5] = dose: 200.0 mg/kg/injection, schedule: Q04DX003 (ip), vehicle: saline
[6] = dose: 400.0 mg/kg/injection, schedule: Q04DX003 (ip), vehicle: saline
[7] = dose: 100.0 mg/kg/injection, schedule: Q04DX003 (ip), vehicle: saline with Tween-80
[8] = dose: 200.0 mg/kg/injection, schedule: Q04DX003 (ip), vehicle: saline with Tween-80
[9] = dose: 400.0 mg/kg/injection, schedule: Q04DX003 (ip), vehicle: saline with Tween-80
[10] = dose: 100.0 mg/kg/injection, schedule: Q01DX009 (ip), vehicle: saline with Tween-80
[11] = dose: 200.0 mg/kg/injection, schedule: Q01DX009 (ip), vehicle: saline with Tween-80
[12] = dose: 100.0 mg/kg/injection, schedule: Q01DX009 (ip), vehicle: Klucel (hydroxypropylcellulose) (HPC)
[13] = dose: 100.0 mg/kg/injection, schedule: Q04DX003 (ip), vehicle: Klucel (hydroxypropylcellulose) (HPC)
[14] = dose: 200.0 mg/kg/injection, schedule: Q01DX009 (ip), vehicle: Klucel (hydroxypropylcellulose) (HPC)
[15] = dose: 200.0 mg/kg/injection, schedule: Q04DX003 (ip), vehicle: Klucel (hydroxypropylcellulose) (HPC)
[16] = dose: 400.0 mg/kg/injection, schedule: Q04DX003 (ip), vehicle: Klucel (hydroxypropylcellulose) (HPC)
[17] = dose: 400.0 mg/kg/injection, schedule: Q01DX009 (ip), vehicle: Klucel (hydroxypropylcellulose) (HPC)
[18] = dose: 50.0 mg/kg/injection, schedule: Q01DX009 (ip), vehicle: saline
[19] = dose: 100.0 mg/kg/injection, schedule: Q01DX009 (ip), vehicle: saline
[20] = dose: 200.0 mg/kg/injection, schedule: Q01DX009 (ip), vehicle: saline
[21] = dose: 400.0 mg/kg/injection, schedule: Q01DX009 (ip), vehicle: saline
[22] = dose: 50.0 mg/kg/injection, schedule: Q01DX001 (ip), vehicle: saline
[23] = dose: 100.0 mg/kg/injection, schedule: Q01DX001 (ip), vehicle: saline
[24] = dose: 200.0 mg/kg/injection, schedule: Q01DX001 (ip), vehicle: saline

Measured: T/C

c1ccc2c(c1)ccc1c(C3CO3)cccc12 (stereo not given)
inactive: [1] 101 % of control | [2] 98 % of control | [3] 88 % of control

C[N+](C)(C)CCO
inactive: dose: 50.0 mg/kg/injection, schedule: Q04DX003 (ip), vehicle: none 99 % of control and 105 % of control | dose: 100.0 mg/kg/injection, schedule: Q04DX003 (ip), vehicle: none 97 % of control and 102 % of control | [4] 95 % of control | dose: 200.0 mg/kg/injection, schedule: Q04DX003 (ip), vehicle: none 96 % of control and 99 % of control | [5] 96 % of control | [6] 106 % of control

CC(=O)NC1CONC1=O (stereo not given)
inactive: [7] 98 % of control | [8] 98 % of control | [9] 94 % of control

CCCCCC(C)O[Si](C)c1cccc(C)c1 (stereo not given)
inactive: [7] 107 % of control | [8] 98 % of control | [9] 102 % of control

COC1(OC)C2C=CC1C1C2C2C1C1C=CC2C1(OC)OC (stereo not given)
inactive: [10] 103 % of control | [7] 94 % of control | [11] 95 % of control | [8] 92 % of control | dose: 400.0 mg/kg/injection, schedule: Q01DX009 (ip), vehicle: saline with Tween-80 100 % of control | [9] 89 % of control

CCOC(=O)C(C)Cl (stereo not given)
inactive: [12] 97 % of control | [13] 103 % of control | [14] 96 % of control | [15] 103 % of control | [16] 103 % of control

CCCCNC(=O)NC(C(=O)OCC)C(=O)OCC
inactive: [12] 97 % of control | [13] 100 % of control | [14] 102 % of control | [15] 100 % of control | [17] 96 % of control | [16] 102 % of control

CN(C)CC(OCCCc1ccccc1)C(Cl)(Cl)Cl (stereo not given)
inactive: [7] 109 % of control | [8] 101 % of control

CCCCCCCCCCOc1ccc(C=Nc2ccc(CC)cc2)cc1
inactive: [12] 103 % of control | [14] 90 % of control | [17] 93 % of control

O=[N+]([O-])c1ccc(Sc2ccc([N+](=O)[O-])cc2)cc1
inactive: dose: 50.0 mg/kg/injection, schedule: Q01DX009 (ip), vehicle: saline with Tween-80 92 % of control | [10] 91 % of control | [11] 89 % of control

CCOC(=O)c1cnc(SC)nc1Nc1ccccc1OC
inactive: [13] 90 % of control | [15] 92 % of control | [16] 87 % of control

CC(Cc1ccc(O)c(O)c1)C(C)Cc1ccc(O)c(O)c1 (stereo not given)
inactive: [18] 98 % of control | [19] 100 % of control | [20] 96 % of control | [21] 100 % of control

Cc1ccc(NC(=O)c2ccc(Cl)cc2Cl)cc1Cl
inactive: [12] 96 % of control | [13] 104 % of control | [14] 91 % of control | [15] 97 % of control | [17] 94 % of control | [16] 95 % of control

COc1cc(C(=O)N(C)C2CCCCC2)cc(OC)c1OC
inactive: [7] 98 % of control | [8] 98 % of control | [9] 102 % of control

c1ccc(-c2ccno2)cc1
inactive: dose: 6.25 mg/kg/injection, schedule: Q01DX009 (ip), vehicle: saline with Tween-80 98 % of control | dose: 12.5 mg/kg/injection, schedule: Q01DX009 (ip), vehicle: saline with Tween-80 106 % of control | dose: 25.0 mg/kg/injection, schedule: Q01DX009 (ip), vehicle: saline with Tween-80 107 % of control | dose: 75.0 mg/kg/injection, schedule: Q01DX009 (ip), vehicle: saline with Tween-80 90 % of control

Cc1ccc(O)c(C(c2cc(S(=O)(=O)O)c(O)cc2C)N2CN(C(c3cc(S(=O)(=O)O)c(O)cc3C)c3cc(C)ccc3O)C2=O)c1 (stereo not given)
inactive: [1] 101 % of control | [2] 93 % of control

NNC(=O)CNc1ccc(Cl)cc1
inactive: dose: 25.0 mg/kg/injection, schedule: Q04DX002 (ip), vehicle: Klucel (hydroxypropylcellulose) (HPC) 98 % of control | dose: 50.0 mg/kg/injection, schedule: Q04DX002 (ip), vehicle: Klucel (hydroxypropylcellulose) (HPC) 106 % of control | dose: 100.0 mg/kg/injection, schedule: Q04DX002 (ip), vehicle: Klucel (hydroxypropylcellulose) (HPC) 98 % of control and 123 % of control

COc1cc(/C=C/C(=O)c2ccc3ccccc3c2)cc(OC)c1OC
inactive: [1] 97 % of control | [2] 107 % of control | [3] 87 % of control

CCOC(=O)CP(=O)(OCC)OCC
inactive: [19] 103 % of control | [4] 109 % of control | [20] 106 % of control | [5] 102 % of control | [21] 99 % of control | [6] 113 % of control

CC(C)(C)N1CC(C(O)c2ccccc2)C1c1ccccc1 (stereo not given)
inactive: [13] 98 % of control | [15] 95 % of control

CN(C)CCCN1c2ccccc2Sc2cc(C=[N+](C)C)ccc21
inactive: dose: 100.0 mg/kg/injection, schedule: Q04DX003 (sc), vehicle: olive oil, sesame oil, peanut oil 103 % of control | dose: 200.0 mg/kg/injection, schedule: Q04DX003 (sc), vehicle: olive oil, sesame oil, peanut oil 98 % of control | dose: 400.0 mg/kg/injection, schedule: Q04DX003 (sc), vehicle: olive oil, sesame oil, peanut oil 108 % of control

CCOC(=O)NCC(CCN(CC)CC)(c1cccc2ccccc12)C(C)CC (stereo not given)
inactive: dose: 100.0 mg/kg/injection, schedule: Q04DX002 (ip), vehicle: saline 93 % of control | dose: 200.0 mg/kg/injection, schedule: Q04DX002 (ip), vehicle: saline 90 % of control | dose: 400.0 mg/kg/injection, schedule: Q04DX002 (ip), vehicle: saline 100 % of control

CC(C)(C)C1CCC(NC(=O)C(Cl)Cl)CC1 (stereo not given)
inactive: dose: 25.0 mg/kg/injection, schedule: Q01DX009 (ip), vehicle: Klucel (hydroxypropylcellulose) (HPC) 100 % of control | dose: 25.0 mg/kg/injection, schedule: Q04DX003 (ip), vehicle: Klucel (hydroxypropylcellulose) (HPC) 97 % of control | dose: 50.0 mg/kg/injection, schedule: Q01DX009 (ip), vehicle: Klucel (hydroxypropylcellulose) (HPC) 94 % of control | dose: 50.0 mg/kg/injection, schedule: Q04DX003 (ip), vehicle: Klucel (hydroxypropylcellulose) (HPC) 100 % of control | [12] 96 % of control | [13] 90 % of control and 92 % of control

OC1Cn2cc(Br)c[n+]2C1 (stereo not given)
inactive: [22] 94 % of control | [23] 116 % of control | [24] 102 % of control | dose: 400.0 mg/kg/injection, schedule: Q01DX001 (ip), vehicle: saline 96 % of control

CC(=O)n1cc(/C=C2\N=C(c3cccc(Cl)c3)OC2=O)c2ccccc21
inactive: [12] 112 % of control | [14] 104 % of control | [17] 101 % of control

CCCCN(C)c1ncnc2[nH]ncc12
inactive: [22] 104 % of control | [18] 116 % of control | dose: 50.0 mg/kg/injection, schedule: Q04DX003 (ip), vehicle: saline 106 % of control | [23] 106 % of control | [4] 110 % of control | [24] 104 % of control | [5] 100 % of control

CC(=O)NCC1OC(COCc2ccccc2)C(OCc2ccccc2)C1OCc1ccccc1 (stereo not given)
inactive: [13] 107 % of control | [15] 96 % of control | [16] 107 % of control
